Source: US20230117034A1, “PYRAZOLOTRIAZINES” (Bayer Aktiengesellschaft, priority 2019, published 2023)

Tests used:
CDK9/CycT1 = molecular target: T1, CDK9/CycT1 (Homo sapiens, UniProt P50750); test: CDK9/CycT1 high ATP kinase assay (TR-FRET, 2 mM ATP); format: biochemical; settings: 2 mM ATP (high ATP); median; read-out: CDK9/CyclinT1, 2 mM ATP (high ATP), IC50 (median)
T1 construct: Recombinant full-length His-tagged human CDK9 and CycT1; purchased Life Technologies PV4131; host or cells: insect cells
Method: CDK9/CycT1-inhibitory activity of compounds of the present invention at a high ATP concentration after preincubation of enzyme and test compounds was quantified employing the CDK9/CycT1 TR-FRET assay as described in the following paragraphs.
Recombinant full-length His-tagged human CDK9 and CycT1, expressed in insect cells and purified by Ni-NTA affinity chromatography, were purchased from Life Technologies (Cat. No PV4131). As substrate for the kinase reaction biotinylated peptide biotin-Ttds-[…] (C-terminus in amide form) was used which can be purchased e.g. form the company JERINI peptide technologies (Berlin, Germany).
For the assay 50 nanoL of a 100 fold concentrated solution of the test compound in DMSO was pipetted into either a black low volume 384 well microtiter plate or a black 1536 well microtiter plate (both Greiner Bio-One, Frickenhausen, Germany), 2 microL of a solution of CDK9/CycT1 in aqueous assay buffer [50 millimol/L Tris/HCl pH 8.0, 10 millimol/L MgCl2, 1.0 millimol/L dithiothreitol, 0.1 millimol/L sodium ortho-vanadate, 0.01% (v/v) Nonidet-P40 (Sigma)] were added and the mixture was incubated for 15 min at 22° C. to allow pre-binding of the test compounds to the enzyme before the start of the kinase reaction. […] The concentration of CDK9/CycT1 was adjusted depending of the activity of the enzyme lot and was chosen appropriate to have the assay in the linear range, typical concentrations were in the range of 0.5 microg/ml.
(§1) The resulting mixture was incubated 1 h at 22° C. to allow the formation of complex between the phosphorylated biotinylated peptide and the detection reagents. Subsequently the amount of phosphorylated substrate was evaluated by measurement of the resonance energy transfer from the Eu-chelate to the streptavidine-XL. Therefore, the fluorescence emissions at 620 nm and 665 nm after excitation at 350 nm was measured in a TR-FRET reader, e.g. a Pherastar (BMG Labtechnologies, Offenburg, Germany) or a Viewlux (Perkin-Elmer). The ratio of the emissions at 665 nm and at […] was taken as the measure for the amount of phosphorylated substrate.

CDK2/CycE = molecular target: T2, CDK2/CycE (Homo sapiens, UniProt P24941); test: CDK2/CycE kinase assay (TR-FRET, 2 mM ATP); format: biochemical; settings: 2 mM ATP (high ATP); median; read-out: CDK2/CyclinE, 2 mM ATP (high ATP), IC50 (median)
T2 construct: purchased ProQinase GmbH (Freiburg, Germany); host or cells: insect cells (Sf9)
From the text: CDK2/CycE-inhibitory activity of compounds of the present invention was quantified employing the CDK2/CycE TR-FRET assay as described in the following paragraphs.
Recombinant fusion proteins of GST and human CDK2 and of GST and human CycE, expressed in insect cells (Sf9) and purified by Glutathion-Sepharose affinity chromatography, were purchase from ProQinase GmbH (Freiburg, Germany). As substrate for the kinase reaction biotinylated peptide biotin-Ttds-YISPLKSPYKISEG (C-terminus in amid form) was used which can be purchased e.g. form the company JERINI peptide technologies (Berlin, Germany).
For the assay 50 nanoL of a 100 fold concentrated solution of the test compound in DMSO was pipetted into a black low volume 384 well microtiter plate or a black 1536 well microtiter plate (both Greiner Bio-One, Frickenhausen, Germany), 2 microL of a solution of CDK2/CycE in aqueous assay buffer [50 millimol/L Tris/HCl pH 8.0, 10 millimol/L MgCl2, 1.0 millimol/L dithiothreitol, 0.1 millimol/L sodium ortho-vanadate, 0.01% (v/v) Nonidet-P40 (Sigma)] were added and the mixture was incubated for 15 min at 22° C. to allow pre-binding of the test compounds to the enzyme before the start of the kinase reaction. Then the kinase reaction was started by the addition of 3 microL of a solution of adenosine-tri-phosphate (ATP, 3.33 millimol/L=>final conc. in the 5 microL assay volume is 2 millimol/L) and substrate (1.25 micromol/L=>final conc. in the 5 microL assay volume is 0.75 micromol/L) in assay buffer and the resulting mixture was incubated for a reaction time of 25 min at 22° C. The concentration of CDK2/CycE was adjusted depending of the activity of the enzyme lot and was chosen appropriate to have the assay in the linear range, typical concentrations were in the range of 10 ng/ml. The reaction was stopped by the addition of 3 microL of a solution of TR-FRET detection reagents (0.333 micromol/L streptavidine-XL665 [Cisbio Bioassays, Codolet, France] and 1.67 nanomol/L anti-RB(pSer807/pSer8l 1)-antibody from BD Pharmingen [#558389] and 2 nanomol/L LANCE EU-W1024 labeled anti-mouse IgG antibody [Perkin-Elmer, product no. AD0077, as an alternative a Terbium-cryptate-labeled anti-mouse IgG antibody from Cisbio Bioassays can be used]) in an aqueous EDTA-solution (167 millimol/L EDTA, 0.2% (w/v) bovine serum albumin in 100 millimol/L HEPES pH 7.5).
as §1, with “substrate. The data were normalised (enzyme reaction without inhibitor=0% inhibition, all other assay components but no enzyme=100% inhibition).” for “substrate.”

T1 sequence (P50750 whole entry): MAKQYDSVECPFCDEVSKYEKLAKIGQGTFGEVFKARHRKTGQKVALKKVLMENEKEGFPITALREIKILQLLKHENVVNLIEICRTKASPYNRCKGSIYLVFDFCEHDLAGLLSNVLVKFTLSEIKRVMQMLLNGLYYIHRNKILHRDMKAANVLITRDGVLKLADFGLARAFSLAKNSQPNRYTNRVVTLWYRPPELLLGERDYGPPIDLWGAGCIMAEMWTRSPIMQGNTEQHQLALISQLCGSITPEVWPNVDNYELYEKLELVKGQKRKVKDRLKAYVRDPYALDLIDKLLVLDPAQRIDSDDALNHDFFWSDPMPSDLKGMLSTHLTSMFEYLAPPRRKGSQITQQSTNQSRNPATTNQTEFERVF
T1 sequence (O60563 whole entry partner): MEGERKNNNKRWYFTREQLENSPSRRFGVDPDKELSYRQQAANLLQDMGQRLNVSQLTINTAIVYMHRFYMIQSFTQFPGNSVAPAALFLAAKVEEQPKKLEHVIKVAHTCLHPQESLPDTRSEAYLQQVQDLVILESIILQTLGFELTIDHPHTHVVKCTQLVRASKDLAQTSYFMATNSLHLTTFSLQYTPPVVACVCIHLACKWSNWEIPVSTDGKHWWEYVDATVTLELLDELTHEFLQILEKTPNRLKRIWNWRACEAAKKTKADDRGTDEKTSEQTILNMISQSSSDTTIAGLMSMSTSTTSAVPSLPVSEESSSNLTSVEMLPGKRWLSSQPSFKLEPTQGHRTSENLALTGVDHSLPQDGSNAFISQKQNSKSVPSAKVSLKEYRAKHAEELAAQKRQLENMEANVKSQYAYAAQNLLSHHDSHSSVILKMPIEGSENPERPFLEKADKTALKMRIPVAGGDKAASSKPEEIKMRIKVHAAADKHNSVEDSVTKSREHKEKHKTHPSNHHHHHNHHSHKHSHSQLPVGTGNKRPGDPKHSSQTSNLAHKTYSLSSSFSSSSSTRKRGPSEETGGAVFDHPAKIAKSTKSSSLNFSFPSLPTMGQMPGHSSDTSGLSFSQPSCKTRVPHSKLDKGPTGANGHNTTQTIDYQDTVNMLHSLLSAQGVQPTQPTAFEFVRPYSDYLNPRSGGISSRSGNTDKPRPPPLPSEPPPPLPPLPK

| SMILES | IC50 (CDK9/CycT1) [µM] | IC50 (CDK2/CycE) [µM] |
| --- | --- | --- |
| Fc1cccc(-c2nnc(CNc3nc(N4CCNCC4)nc4c(Br)cnn34)[nH]2)c1 [Example 152, 8-bromo-N-{[5-(3-fluorophenyl)-4H-1,2,4-triazol-3-yl]methyl}-2-(piperazin-1-yl)pyrazolo[1,5-a][1,3,5]triazin-4-amine] | 1.99 | 5.42 |
| CN1CCN(c2nc(NCc3nc4c(F)cccc4[nH]3)n3ncc(Br)c3n2)CC1 [Example 126, 8-bromo-N-[(4-fluoro-1H-benzimidazol-2-yl)methyl]-2-(4-methylpiperazin-1-yl)pyrazolo[1,5-a][1,3,5]triazin-4-amine] | > 20 | 5.99 |
| CC1CN(C)CCN1c1nc(NCc2nc3ccccc3[nH]2)n2ncc(Br)c2n1 (centres unmarked) [Example 156, N-(1H-benzimidazol-2-ylmethyl)-8-bromo-2-(2,4-dimethylpiperazin-1-yl)pyrazolo[1,5-a][1,3,5]triazin-4-amine] | > 20 | 3.48 |
| Brc1cnn2c(NCc3nc4ccccc4[nH]3)nc(N3C[C@@H]4C[C@H]3CO4)nc12 [Example 103, N-[(1H-benzimidazol-2-yl)methyl]-8-bromo-2-[(1S,4S)-2-oxa-5-azabicyclo[2.2.1]heptan-5-yl]pyrazolo[1,5-a][1,3,5]triazin-4-amine] | > 20 | 9.05 |
| Cc1ccc(-c2nnc(CNc3nc(N4CCOCC4)nc4c(Br)cnn34)[nH]2)cc1F [Example 98, 8-bromo-N-{[5-(3-fluoro-4-methylphenyl)-4H-1,2,4-triazol-3-yl]methyl}-2-(morpholin-4-yl)pyrazolo[1,5-a][1,3,5]triazin-4-amine] | 0.953 | 2.03 |
| Brc1cnn2c(NCc3nc4ccccc4[nH]3)nc(N3C[C@@H]4CCCN[C@@H]4C3)nc12 [Example 146, N-[(1H-benzimidazol-2-yl)methyl]-8-bromo-2-[(4aS,7aS)-octahydro-6H-pyrrolo[3,4-b]pyridin-6-yl]pyrazolo[1,5-a][1,3,5]triazin-4-amine] | > 20 | 7.11 |
| CC(C)c1cnn2c(NCc3nc4ccccc4[nH]3)nc(N3CCOC[C@@H]3C)nc12 [Example 6, N-[(1H-benzimidazol-2-yl)methyl]-2-[(3S)-3-methylmorpholin-4-yl]-8-(propan-2-yl)pyrazolo[1,5-a][1,3,5]triazin-4-amine] | > 16.1 | 2.01 |
| OCC1CCN1c1nc(NCc2nc3ccccc3[nH]2)n2ncc(Br)c2n1 (centres unmarked) [Example 147, [1-[4-(1H-benzimidazol-2-ylmethylamino)-8-bromo-pyrazolo[1,5-a][1,3,5]triazin-2-yl]azetidin-2-yl]methanol] | > 20 | 3.12 |
| CC1(C)CN(c2nc(NCc3nc4ccccc4[nH]3)n3ncc(C4CC4)c3n2)CCO1 [Example 123, N-[(1H-benzimidazol-2-yl)methyl]-8-cyclopropyl-2-(2,2-dimethylmorpholin-4-yl)pyrazolo[1,5-a][1,3,5]triazin-4-amine] | > 20 | > 20 |
| CN1CCN(c2nc(NCc3nc4c(F)cccc4[nH]3)n3ncc(C4CC4)c3n2)CC1 [Example 165, 8-cyclopropyl-N-[(4-fluoro-1H-benzimidazol-2-yl)methyl]-2-(4-methylpiperazin-1-yl)pyrazolo[1,5-a][1,3,5]triazin-4-amine] | > 20 | > 20 |
| Brc1cnn2c(NCc3nc4ccccc4[nH]3)nc(N3CCOCC3)nc12 [Example 4, N-[(1H-benzimidazol-2-yl)methyl]-8-bromo-2-(morpholin-4-yl)pyrazolo[1,5-a][1,3,5]triazin-4-amine] | > 20 | 2.28 |
| Fc1ccc(-c2cnn3c(NCc4nc5ccccc5[nH]4)nc(N4CCOCC4)nc23)cc1 [Example 106, N-[(1H-benzimidazol-2-yl)methyl]-8-(4-fluorophenyl)-2-(morpholin-4-yl)pyrazolo[1,5-a][1,3,5]triazin-4-amine] | > 20 | > 20 |
| Fc1cccc2[nH]c(CNc3nc(N4CCOCC4)nc4c(Br)cnn34)nc12 [Example 97, 8-bromo-N-[(4-fluoro-1H-benzimidazol-2-yl)methyl]-2-(morpholin-4-yl)pyrazolo[1,5-a][1,3,5]triazin-4-amine] | 13.4 | 3.24 |
| C[C@H]1CN(c2nc(NCc3nnc(-c4cccc(F)c4)[nH]3)n3ncc(Br)c3n2)CCN1C [Example 154, 8-bromo-2-[(3S)-3,4-dimethylpiperazin-1-yl]-N-{[5-(3-fluorophenyl)-4H-1,2,4-triazol-3-yl]methyl}pyrazolo[1,5-a][1,3,5]triazin-4-amine] | 2.56 | 4.47 |
| Clc1cccc(-c2cnn3c(NCc4nc5ccccc5[nH]4)nc(N4CCOCC4)nc23)c1 [Example 107, N-[(1H-benzimidazol-2-yl)methyl]-8-(3-chlorophenyl)-2-(morpholin-4-yl)pyrazolo[1,5-a][1,3,5]triazin-4-amine] | > 20 | > 20 |
| C[C@@H]1CN(c2nc(NCc3nnc(-c4ccccc4)[nH]3)n3ncc(Br)c3n2)C[C@H](C)N1C [Example 125, 8-bromo-N-[(5-phenyl-4H-1,2,4-triazol-3-yl)methyl]-2-[(3R,5S)-3,4,5-trimethylpiperazin-1-yl]pyrazolo[1,5-a][1,3,5]triazin-4-amine] | 3.79 | 13.2 |
| CC(C)c1cnn2c(NCc3nc4ccccc4[nH]3)nc(NCC(C)(C)O)nc12 [Example 10, 1-{[4-{[(1H-benzimidazol-2-yl)methyl]amino}-8-(propan-2-yl)pyrazolo[1,5-a][1,3,5]triazin-2-yl]amino}-2-methylpropan-2-ol] | > 20 | 0.874 |
| COc1ccc2[nH]c(CNc3nc(N4CCOCC4)nc4c(Br)cnn34)nc2c1 [Example 160, 8-bromo-N-[(5-methoxy-1H-benzimidazol-2-yl)methyl]-2-(morpholin-4-yl)pyrazolo[1,5-a][1,3,5]triazin-4-amine] | > 20 | 5.17 |
| CN1CCN(c2nc(NCc3nnc(-c4cccc(F)c4)[nH]3)n3ncc(Br)c3n2)CC1 [Example 136, 8-bromo-N-{[5-(3-fluorophenyl)-4H-1,2,4-triazol-3-yl]methyl}-2-(4-methylpiperazin-1-yl)pyrazolo[1,5-a][1,3,5]triazin-4-amine] | 1.42 | 3.45 |
